The source of these data is US4868210A, “Antihyperlipidemic and antiatherosclerotic compounds and compositions” (priority 1988, dated 1989).

The experiment concerns the target T1, acyl-CoA:cholesterol acyltransferase (ACAT) (Oryctolagus cuniculus, UniProt G1SFD9).
T1 construct: tissue preparation containing rabbit intestinal microsomes; from tissue; host or cells: rabbit intestinal microsomes
T1 sequence (G1SFD9 1-524): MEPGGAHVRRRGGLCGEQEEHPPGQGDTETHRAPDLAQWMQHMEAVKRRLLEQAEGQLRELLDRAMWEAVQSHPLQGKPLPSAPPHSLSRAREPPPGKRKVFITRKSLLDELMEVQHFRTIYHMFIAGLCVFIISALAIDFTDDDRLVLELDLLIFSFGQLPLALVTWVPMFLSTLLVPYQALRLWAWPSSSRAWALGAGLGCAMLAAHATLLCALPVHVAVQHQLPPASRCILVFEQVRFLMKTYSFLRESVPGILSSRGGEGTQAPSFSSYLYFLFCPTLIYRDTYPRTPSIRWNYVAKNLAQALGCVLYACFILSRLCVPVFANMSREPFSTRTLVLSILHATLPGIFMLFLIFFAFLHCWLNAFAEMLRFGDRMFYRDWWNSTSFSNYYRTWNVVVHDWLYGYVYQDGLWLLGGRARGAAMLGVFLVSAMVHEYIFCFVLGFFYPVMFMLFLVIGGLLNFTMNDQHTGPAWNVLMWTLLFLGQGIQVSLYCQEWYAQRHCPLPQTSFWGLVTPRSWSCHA
The experiment is described as follows: In vitro ACAT inhibition (radiolabeled cholesterol oleate formation from radiolabeled oleic acid in rabbit intestinal microsomes). Conditions: concentration required to inhibit 50% the acylation of cholesterol by oleic acid. It is filed as biochemical. As for the experimental part:
The ability of representative compounds of the present invention to inhibit ACAT was measured using an in vitro test more fully described in Field, F. J. and Salone, R. G., Biochemica et Biophysica 712: 557-570 (1982). The test assesses the ability of a test compound to inhibit the acylation of cholesterol by oleic acid by measuring the amount of radiolabeled cholesterol oleate formed from radiolabeled oleic acid in a tissue preparation containing rabbit intestinal microsomes.
Compound `CC(C)c1cccc(C(C)C)c1NC(=O)NCC1c2ccccc2-c2ccccc21` [Example 1, N-[2,6-bis(1-methylethyl)phenyl]-N'-(9H-fluoren-9-ylmethyl)urea] came in with a concentration for half-maximal inhibition (IC50) of 27 nM.
Next, `CC(C)c1cccc(C(C)C)c1NC(=O)NC1CCOc2ccccc2C1` (stereo not shown) [Example 8, N-[2,6-bis(1-methylethyl)phenyl]-N'-(2,3,4,5-tetrahydrobenzoxepin-4-yl)urea]: 52 nM.
Next, `CC(C)c1cccc(C(C)C)c1NC(=O)NC1CCc2ccccc2C1` (stereo not shown) [Example 9, N-[2,6-bis(1-methylethyl)phenyl]-N'-(1,2,3,4-tetrahydro-2-naphthalenyl)urea]: 41 nM.
Next, `CC(C)c1cccc(C(C)C)c1NC(=O)NC1COc2ccccc2C1` (stereo not shown) [Example 10, N-[2,6-bis(1-methylethyl)phenyl]-N'-(3,4-dihydro-2H-1-benzopyran-3-yl)urea]: 100 nM; `COc1ccc2c(c1)CC(CNC(=O)Nc1c(C(C)C)cccc1C(C)C)CC2` (stereo not shown) [Example 11, N-[2,6-bis(1-methylethyl)phenyl]-N'-[(1,2,3,4-tetrahydro-7-methoxy-2-naphthalenyl)methyl]urea]: 84 nM; `Cc1cccc(C)c1NC(=O)NC1CC(C)(C)c2ccccc2C1(C)C` (stereo not shown) [Example 12, N-(2,6-dimethylphenyl)-N'-(1,2,3,4-tetrahydro-1,1,4,4-tetramethyl-2-naphthalenyl)urea]: 270 nM.
`CC(C)c1cccc(C(C)C)c1NC(=O)NC1CC(C)(C)c2ccccc2C1(C)C` (stereo not shown) [Example 13, N-[2,6-bis(1-methylethyl)phenyl]-N'-(1,2,3,4-tetrahydro-1,1,4,4-tetramethyl-2-naphthalenyl)urea]: the IC50 was 89 nM.

The IC50 is the point on the concentration scale where inhibition reaches its midpoint. A higher IC50 goes with lower potency.
